According to patent publication EP0019589A1, “Tripeptide derivatives and their use in a process for determining enzymes” (Pentapharm A.G., priority 1979, dated 1980):
Non-standard residues stand in square brackets, D forms with d. Residues, ends and D or L forms follow the SMILES beside them. *: point of attachment. Cha = N[C@@H](CC1CCCCC1)C(=O)O; dCha = N[C@H](CC1CCCCC1)C(=O)O; dChg = N[C@@H](C(=O)O)C1CCCCC1; dPhg = N[C@@H](C(=O)O)c1ccccc1; pNA = O=[N+]([O-])c1ccc(N*)cc1; Chg = N[C@H](C(=O)O)C1CCCCC1

Legend:
Assay type in all cases: biochemical
Urinkallikrein = target: T1, Urinkallikrein (Homo sapiens, UniProt P06870); assay: Cleavage of chromogenic substrate by urinary kallikrein in human urine; details: 1 ml human urine (pooled morning urine of healthy persons), per min; Substratkonzentration 2 x 10^-4 molar
T1 construct: 1 ml Urin und 1 ml TRIS-Imidazol-Puffer mit pH 7,9; from tissue; host or cells: human urine
Experimental: 1. Bestimmung von Urinkallikrein.
1 ml Urin und 1 ml TRIS-Imidazol-Puffer mit pH 7,9 und Ionenstärke 1,0 werden 5 Min. bei 37°C inkubiert undcänn zentrifugiert, um Sedimente zu entfernen.
In einer-Plastikküvette werden 1,4 ml dest. H20 von 37°C und 0,4 ml des Zentrifugats gut gemischt. Zu dieser Mischung gibt man 0,2 ml einer 2 x 10^-3 molaren wässrigen Substratlösung und durchmischt die Komponenten schnell. Dieses Gemisch wird genau 15 Min. bei 37°C inkubiert. Dann wird dem Reaktionsgemisch 0,2 ml Eisessig zugemischt, um die Enzymreaktion zu unterbrechen. Zur Farbmessung verwendet man eine Vergleichsprobe (Blindprobe), die aus den gleichen Komponenten zusammengesetzt ist, wobei jedoch der Eisessig vor Zugabe des Substrates zugesetzt wird, um die Enzymreaktion zu verhindern. Dann wird bei 405 nm photometrisch oder spektrophotometrisch die Menge der gebildeten farbigen Verbindung RNH 2 aus der Differenz zwischen der Blindprobe und der zu bestimmenden Probe ermittelt. Aus dem ermittelten Wert wird die Urinkallikreinaktivität im Urin nach der folgenden Formel berechnet: [formula] • Δ OD = Zunahme der optischen Dichte bei 405 nm während 15 Min. • V = Totalvolumen des Bestimmungsansatzes = 2,2 ml • 1000 = Umrechnungsfaktor zur Umwandlung von U in mU • F = Verdünnungsfaktor des Urins (2) • v = Volumen der Probe = 0,4 ml • ε = Extinktionskoeffizient dividiert durch 1000 = 10,4
Bei der oben beschriebenen Bestimmungsmethode misst man somit die Summe der Aktivitäten von Urinkallikrein und Urokinase. Um die genaue Urinkallikreinaktivität zu erhalten, muss man die Urokinaseaktivität abziehen, welche dadurch bestimmt werden kann, dass man in einem Vergleichsversuch durch Zugabe von 0,075 Einheiten Trypsininhibitor (Trypsininhibitor aus Rinderlunge) pro ml Puffer die Urinkallikreinaktivität vollständig hemmt und nur die Urokinaseaktivität misst.
(§1) Bei der Messung des durch die enzymatische Hydrolyse des Substrates gebildeten Spaltproduktes RrNH2 geht man von der Voraussetzung aus, dass das Spaltprodukt ein UV-Spektrum besitzt, das von demjenigen des Substrates verschieden und in Richtung höherer Wellenlängen verschoben ist. Die Absorption des Substrates bei 405 nm ist praktisch Null. p-Nitroanilin als Spaltprodukt weist ein Absorptionsmaximum bei 380 nm und einen molaren Extinktionskoeffizienten von 13'200 auf. Bei 405 nm ist der Extinktionskoeffizient nur wenig niedriger, d.h. […] Der Grad der enzymatischen Hydrolyse des Substrates, welcher der Menge des abgespaltenen p-Nitroanilins proportional ist, lässt sich durch spektrophotometrische Messung bei 405 nm bestimmen. Auch bei Anwesenheit eines Ueberschusses an Substrat wird die Messung bei 405 nm nicht gestört.
(§2) Bei den Substraten, die als chromogene Gruppe eine 2-Naphthylamino-, 4-Methoxy-2-naphthylamino-, 4-Methyl-cumaryl-(7)-amino- oder 1,3-Di(methoxycarbonyl)-phenyl-(5)-amino-Gruppe enthalten, wird die Menge des Spaltproduktes R-NH2 durch Fluoreszenzspektrophotometrie gemessen. In einem aus Enzym, Puffer und Substrat bestehenden Testsystem misst man kontinuierlich das energieärmere emittierte Licht bei 400-470 nm, nachdem man das gebildete fluoreszierende Spaltprodukt mit energiereicherem Licht erregt hat. Die pro Zeiteinheit gebildete Menge Spaltprodukt ist ein Mass für die vorhandene Enzymaktivität. 1 µMol Spaltprodukt pro Minute entspricht definitionsgemäss 1 Enzym-Einheit, bezogen auf ein gegebenes Substrat.

[1] = target: T2, Submandibularis-Kallikrein (Homo sapiens, UniProt P06870); assay: Cleavage of chromogenic substrate by submandibular (glandular) kallikrein in human sputum; details: 1 ml human sputum, per min; Substratkonzentration 2 x 10^-4 molar
T2 construct: Man mischt 0,5 ml Sputum mit 2 ml TRIS-Imidazol-Puffer; from tissue; host or cells: human sputum
Experimental: 2. Bestimmung des Glandulärkallikreins im Sputum: • Man mischt 0,5 ml Sputum mit 2 ml TRIS-Imidazol-Puffer (Ionenstärke 1,0) und präinkubiert die Mischung 5 Min. bei 37°C. Das Inkubat wird zentrifugiert. In eine Testküvette wird 1,5 ml dest. H2O von 37°C vorgelegt und mit 0,25 ml des Zentrifugats versetzt. Die Komponenten werden gut gemischt. Dann wird 0,2 ml 2 x 10-^3 molare wässrige Substratlösung zugesetzt und gemischt. Dann wird bei 405 nm die Extinktions- änderung kontinuierlich mittels eines Schreibers während 5-10 Min. verfolgt. Aus dem ermittelten Δ OD pro Min. wird mittels der nachstehenden Formel die Kallikreinaktivität pro ml Sputum in mU errechnet: [formula] • F = 5 • V = 1,95 • v = 0,25 • 1 U (Einheit) = Enzymmenge, die während 1 Min. 1 µMol Substrat unter optimalen oder sonst festgelegten Bedingungen in Bezug auf pH, Ionenstärke, Temperatur und Substratkonzentration zu spalten vermag
as §1, with “gestört. […]” for “gestört.”

Humanplasmin = target: T3, Humanplasmin (Homo sapiens, UniProt P00747); assay: Cleavage of chromogenic substrate by human plasmin; details: 1 CU-Einheit human plasmin, per min; Substratkonzentration 2 x 10^-4 molar
T3 construct: da bei der Aktivierung aus 1 Molekül Plasminogen 1 Molekül Plasmin entsteht
Experimental: 3. Bestimmung von Plasmin:
Man mischt 1,7 ml TRIS-Imidazol-Puffer (pH 7,5, Ionenstärke 0,2) bei 37°C mit 0,1 ml einer Lösung von Plasmin in 25%igem Glycerin und inkubiert die Mischung während 1 Min. bei 37°C. Dann gibt man der Mischung 0,2 ml einer wässrigen 2 x 10^-3 molaren Substxatlösung von 37°C zu und durchmischt das Ganze schnell. Man ermittelt dann kontinuierlich die pro Zeiteinheit aus dem Substrat freigesetzte Menge des Spaltproduktes R-NH2. Aus dem pro Min. ermittelten Wert berechnet man dann die Plasminaktivität pro ml Probe in mU nach der folgenden Formel: [formula] • ΔE = pro Min. freigesetzte Menge des Spaltproduktes • V = Totalvolumen des Testansatzes • v = Volumen der Probe • = Extinktionskoeffizient dividiert durch 1000
as §1, §2

Humanthrombin = target: T4, Humanthrombin (Homo sapiens, UniProt P00734); assay: Cleavage of chromogenic substrate by human NIH thrombin; details: 1 NIH-Einheit human thrombin, per min; Substratkonzentration 2 x 10^-4 molar
T4 construct: Humanplasmin und hu-manem NIH-Thrombin
From the text: as §1, §2

T3 sequence (P00747 581-810 limits assumed): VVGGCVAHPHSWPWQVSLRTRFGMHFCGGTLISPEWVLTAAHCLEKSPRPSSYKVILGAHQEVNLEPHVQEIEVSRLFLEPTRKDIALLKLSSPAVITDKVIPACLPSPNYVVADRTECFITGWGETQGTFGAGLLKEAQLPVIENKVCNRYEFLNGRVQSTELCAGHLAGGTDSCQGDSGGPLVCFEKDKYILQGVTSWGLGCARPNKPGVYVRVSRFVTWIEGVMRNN
T3 sequence (P00747 97-580 partner limits assumed): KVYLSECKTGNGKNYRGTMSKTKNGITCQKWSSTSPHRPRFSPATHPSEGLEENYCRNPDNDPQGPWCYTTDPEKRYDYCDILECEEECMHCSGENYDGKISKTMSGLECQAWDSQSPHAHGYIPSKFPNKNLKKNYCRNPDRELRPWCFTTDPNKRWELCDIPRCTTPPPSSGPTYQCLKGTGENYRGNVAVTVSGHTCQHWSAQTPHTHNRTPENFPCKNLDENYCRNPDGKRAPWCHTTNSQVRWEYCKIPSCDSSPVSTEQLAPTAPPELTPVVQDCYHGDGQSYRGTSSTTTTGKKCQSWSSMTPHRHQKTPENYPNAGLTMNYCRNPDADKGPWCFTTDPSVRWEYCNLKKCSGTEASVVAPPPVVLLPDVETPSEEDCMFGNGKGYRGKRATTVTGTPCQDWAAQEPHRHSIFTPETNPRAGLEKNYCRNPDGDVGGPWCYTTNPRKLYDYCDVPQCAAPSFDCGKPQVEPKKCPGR
T1 sequence (P06870 25-262): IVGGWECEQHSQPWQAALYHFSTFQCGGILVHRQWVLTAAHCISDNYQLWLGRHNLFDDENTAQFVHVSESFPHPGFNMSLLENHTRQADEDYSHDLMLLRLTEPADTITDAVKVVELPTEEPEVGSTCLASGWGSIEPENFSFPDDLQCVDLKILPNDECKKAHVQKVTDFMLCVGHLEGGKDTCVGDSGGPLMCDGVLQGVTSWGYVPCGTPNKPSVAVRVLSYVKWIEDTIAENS
T2 sequence (P06870 25-262): as above

| Compound | Menge des durch 1 ml Humanurin pro Min. freigesetzten Spaltproduktes R-NH2 in Nanomol (Urinkallikrein) (Urinkallikrein) | Menge des durch 1 ml Humansputum pro Min. freigesetzten Spaltproduktes R-NH2 in Nanomol (Submandibularis-Kallikrein) [1] | Menge des durch 1 CU-Einheit Humanplasmin pro Min. freigesetzten Spaltproduktes R-NH2 in Nanomol (Humanplasmin) (Humanplasmin) [Nanomol] | Menge des durch 1 NIH-Einheit Thrombin pro Min. freigesetzten Spaltproduktes R-NH2 in Nanomol (Humanthrombin) (Humanthrombin) |
| --- | --- | --- | --- | --- |
| N=C(N)NCCC[C@H](NC(=O)[C@@H]1CCCN1C(=O)[C@H](N)CC1CCCCC1)C(=O)Nc1ccc([N+](=O)[O-])cc1 [Beispiel 19, 2HBr.H-D-CHA-Pro-Arg-pNA] (H-[dCha]-Pro-Arg-pNA) | 1,40 Nanomol | 8,1 Nanomol | 1200 | 54,4 Nanomol |
| NCCCC[C@H](NC(=O)[C@H](CC1CCCCC1)NC(=O)[C@H](N)C1CCCCC1)C(=O)Nc1ccc([N+](=O)[O-])cc1 [Beispiel 20, 2HBr.H-D-CHG-CHA-Lys-pNA] (H-[dChg]-[Cha]-Lys-pNA) | 0,28 Nanomol | 4,4 Nanomol | 500 | 0,99 Nanomol |
| CC(C)C[C@H](NC(=O)[C@H](N)C1CCCCC1)C(=O)N[C@@H](CCCCN)C(=O)Nc1ccc([N+](=O)[O-])cc1 [Beispiel 21, 2HBr.H-D-CHG-Leu-Lys-pNA] (H-[dChg]-Leu-Lys-pNA) | 0,40 Nanomol | 2,2 Nanomol | 460 | 1,20 Nanomol |
| N=C(N)NCCC[C@H](NC(=O)[C@H](CC1CCCCC1)NC(=O)[C@H]1CCCN1)C(=O)Nc1ccc([N+](=O)[O-])cc1 [Beispiel 22, 2HBr.H-D-Pro-CHA-Arg-pNA] (H-[dP]-[Cha]-Arg-pNA) | 0,63 Nanomol | 11,7 Nanomol | 250 | 0,75 Nanomol |
| N=C(N)NCCC[C@H](NC(=O)[C@@H](NC(=O)[C@H]1CCCN1)C1CCCCC1)C(=O)Nc1ccc([N+](=O)[O-])cc1 [Beispiel 24, 2HBr.H-D-Pro-CHG-Arg-pNA] (H-[dP]-[Chg]-Arg-pNA) | 1,87 Nanomol | 5,7 Nanomol | 10 | 0,29 Nanomol |
| N=C(N)NCCC[C@H](NC(=O)[C@H](CC1CCC(O)CC1)NC(=O)[C@H]1CCCN1)C(=O)Nc1ccc([N+](=O)[O-])cc1 (stereo partly drawn) [Beispiel 25, 2HBr.H-D-Pro-CHT-Arg-pNA] | 0,52 Nanomol | 10,7 Nanomol | 390 | 1,52 Nanomol |
| CC(C)C[C@H](NC(=O)[C@H](N)c1ccccc1)C(=O)N[C@@H](CCCNC(=N)N)C(=O)Nc1ccc([N+](=O)[O-])cc1 [Beispiel 26, 2HBr.H-D-Ph'Gly-Leu-Arg-pNA] (H-[dPhg]-Leu-Arg-pNA) | 0,19 Nanomol | 8,3 Nanomol | 194 | 0,8 Nanomol |
| N=C(N)NCCC[C@H](NC(=O)[C@@H]1CCCN1C(=O)[C@H](N)C1CCCCC1)C(=O)Nc1ccc([N+](=O)[O-])cc1 [Beispiel 27, 2HBr.H-D-CHG-Pro-Arg-pNA] (H-[dChg]-Pro-Arg-pNA) | 0,33 Nanomol | 12,9 Nanomol | 511 | 96,3 Nanomol |
| N=C(N)NCCC[C@H](NC(=O)[C@@H]1CCCCN1C(=O)[C@H](N)CC1CCC(O)CC1)C(=O)Nc1ccc([N+](=O)[O-])cc1 (stereo partly drawn) [Beispiel 28, 2HBr.H-D-CHT-Pip-Arg-pNA] | 0 Nanomol | 9,9 Nanomol | 122 | 80,4 Nanomol |
| NCCCC[C@H](NC(=O)[C@@H]1CCCN1C(=O)[C@H](N)CC1CCCCC1)C(=O)Nc1ccc([N+](=O)[O-])cc1 [Beispiel 29, 2AcOH.H-D-CHA-Pro-Lys-pNA] (H-[dCha]-Pro-Lys-pNA) | 0,71 Nanomol | 4,4 Nanomol | 639 | 4,54 Nanomol |
